In the experiment the test system is Pol II. The experiment can be described thus: 4sU-FP-seq measurement of Pol II transcription elongation rate in HEK293T cells. The settings on record: 20 μM pretreatment 5 hr, HMM analysis, 982 genes. Format: cell-based, human. On the procedure: FIG. 4. Small molecule disruption of SEC slows Pol II elongation rates. (A) Workflow of 4sU-FP-seq based measurement of the transcription elongation rate of RNA Pol II. HEK293T cells were pretreated with vehicle or 20 μM SEC inhibitors for 5 hr before addition of the CDK9 inhibitor flavopiridol for 1 hr to arrest Pol II at the promoter-proximal pause site. Inhibitors are washed out with PBS before allowing transcription to proceed in the presence of with fresh medium containing 500 μM 4-Thiouridine (4sU) for 15 min. The 4sU-labeled RNA is then extracted and fragmented before purification, and followed with RNA-seq. (B) Genome browser tracks of 4sU-FP-seq for vehicle and SEC inhibitor-treated cells at the ACTN2 and MTR loci. […] (C) Heatmap analysis of 4sU-FP-seq in vehicle and the indicated SEC inhibitors in HEK293T cells. All genes longer than 50 kb (N=5,568) were plotted and ordered using the total 4sU-FP-seq signals in the vehicle-treated cells. (D) Metaplot of strand-specific 4sU-FP-seq signals in vehicle and SEC inhibitors-treated cells. […] Raw changes in 4sU-FP-seq read counts in non-overlapping 50 bp windows used to infer elongation rates for the MTR gene. […] (F-G) Histograms (F) and boxplots (G) comparing the transcription elongation rates for 982 genes in HEK293T cells for which high confidence elongation rates could be determined. […]

Turning to `COc1cccc(C(=O)CC(=O)C(=O)Nc2cc(Cl)ccc2C)c1` [KL-1, N-(5-chloro-2-methylphenyl)-4-oxo-4-(3-methoxyphenyl)-2-oxobutanamide], the “elongation rate of Pol II” value is on record as “decreased the elongation rate of Pol II”.

For the origin of these results see patent US11453640B2, “Small molecules for disrupting the super elongation complex and inhibiting transcription elongation for cancer therapy” (NORTHWESTERN UNIVERSITY, priority 2018, dated 2022).
